Columns and labels:
[1] = system: patient suffering from SAPHO syndrome; assay: Case report: oral NMN in a patient with SAPHO syndrome, BASDAI self-assessment questionnaire; format: in vivo, human; conditions: one patient
Description: (§1) This case report investigated the effects of nicotinamide mononucleotide derivatives according to the invention in a patient suffering from SAPHO syndrome. Especially, the effects of nicotinamide mononucleotide (NMN), i.e. compound 001, were investigated. NMN was orally administered at a dose of 500 mg/day, once a day in the morning, for 12 months. The patient reported that SAPHO syndrome manifested with osteitis in the upper right chest area managed with NSAIDs. At the start of the treatment, the patient reported strong pain and swelling (7.5/10) in joints affected by the disease. The patient also suffered from fatigue. In the absence of SAPHO syndrome specific questionnaire, efficacy of the treatment was assessed using self-assessment questionnaires: the Bath Ankylosing Spondylitis Disease Activity Index (BASDAI) which is the gold standard for measuring and following disease activity in Ankylosing Spondylitis, and the Bath Ankylosing Spondylitis Functional Index (BAFSI) for measuring and monitoring functional ability in patients with ankylosing spondylitis. […] Evaluation was performed before start of the treatment, and after 12 months of treatment.

[2] = system: patient suffering from SAPHO syndrome; assay: Case report: oral NMN in a patient with SAPHO syndrome, BASFI self-assessment questionnaire; format: in vivo, human; conditions: one patient
Description: as §1

For NC(=O)c1ccc[n+]([C@@H]2O[C@H](COP(=O)([O-])O)[C@@H](O)[C@H]2O)c1 [NMN, nicotinamide mononucleotide], the “BASDAI score after NMN” value ([1]; 500 mg/day oral once a day, after 12 months, before NMN: 5.4, scores of 4 or greater suggest suboptimal control of disease) was 3, the “effect on fatigue, pain and swelling of the joints and discomfort (BASDAI items)” value ([1]; 500 mg/day oral, 12 months, before: pain and swelling 7.5/10, fatigue 6.5/10, discomfort 6.5/10) was “significantly improved fatigue, pain and swelling of the joints and discomfort” and the “BASFI score after NMN” value ([2]; 500 mg/day oral once a day, after 12 months, before NMN: 2.4) was 2.1. The “BASFI item: physically demanding activities, score” value ([2]; 500 mg/day oral, after one year treatment, before treatment 7/10) was 4.5 /10.
